The source of these data is US10428151B2, “Treatment of hematologic malignancies with an anti-CXCR4 antibody” (BRISTOL-MYERS SQUIBB COMPANY, priority 2011, dated 2019).

The test system of experiment [1] is Ramos cells. In words: Ramos cell proliferation, Cell-Titer-Glo. Format: cell-based, human. The note with it: 72 hours. The procedure: Ramos cells were suspended at 1×10^5 cells/mL in growth media, incubated with the relevant antibodies, including isotype controls, and other test agents and cultured for 72 hours at 37° C. Cell-Titer-Glo (Promega) was added to wells, mixed, and incubated at room temperature for 10 minutes. The plate was read on a GloMax Luminometer (Promega).

The subject of experiment [2] is Ramos cells. In words: Apoptosis of Ramos cells, Annexin V-FITC/PI, vs AMD3100. In kind it is cell-based, human. The conditions noted are these: 24 hours, antibody 10 μg/mL, AMD3100 6 μM. The procedure:
Cells were stained with Annexin V-FITC and propidium iodide (A). The percent of cells positive for Annexin V only or both Annexin V and PI double positive was determined (B).
Cells were stained with Annexin V-FITC and propidium iodide (PI).

In experiment [3] the test system is MOLP-8 cells. In words: MOLP-8 MM xenograft in SCID mice. Format: in vivo. The note with it: for efficacy in MOLP8 tumors: lenalidomide 50 mg/kg, bortezomib 0.8 mg/kg, BMS-936564 10 mg/kg/dose. The procedure: In all the experiments, the mice were injected intraperitoneally on Days 0 and 7 with an IgG4 isotype control and a PBS vehicle control.
For experiment [4], the system named is Bortezomib-resistant JJN-3R cells. In words: JJN-3R MM xenograft in SCID mice. In kind it is in vivo. The conditions noted are these: lenalidomide 50 mg/kg/dose IP, bortezomib 0.8 mg/kg/dose IV.
Experiment [5] deals with parental JJN-3 cells. In words: JJN-3 MM xenograft in SCID mice. Format: in vivo. The note with it: bortezomib 0.8 mg/kg/dose IV, lenalidomide 50 mg/kg/dose IP. An excerpt: 5 million JJN-3 cells/mouse were implanted into SCID mice and the mice were randomized into groups of 8 when the tumor volume reached approximately 77 mm^3.
Experiment [6] relates to RPMI-8226 cells. In words: RPMI-8226 MM xenograft in SCID mice. In kind it is in vivo. The procedure: The mice were randomized (n=8) when the tumor volume reached approximately 20 mm^3, dosed on Days 0, 3, 7, 10 and 14 with MDX-1338 (10 mg/kg/dose) alone or in combination with 50 mg/kg lenalidomide or in combination with 0.8 mg/kg bortezomib.
The test system of experiment [7] is MM.1S cells. In words: MM.1S MM xenograft in SCID mice. In kind it is in vivo.
Experiment [8] has as its system OPM-2 cells. In words: OPM-2 MM xenograft in SCID mice.
Excerpt: OPM-2 cells (10 million) were implanted into SCID mice as described.
The target in experiment [9] is T1, CXCR4 (Homo sapiens, UniProt P61073). In words: Competition with FITC-labeled F9 for binding to CEM cells. The note with it: 300 nM to 5 pM. The procedure: To determine the ability of a panel of anti-CXCR4 antibodies to compete for binding to CXCR4, competition studies were performed. […] The mixture of antibodies was then added to CEM cells and allowed to bind.
T1 sequence (P61073 whole entry): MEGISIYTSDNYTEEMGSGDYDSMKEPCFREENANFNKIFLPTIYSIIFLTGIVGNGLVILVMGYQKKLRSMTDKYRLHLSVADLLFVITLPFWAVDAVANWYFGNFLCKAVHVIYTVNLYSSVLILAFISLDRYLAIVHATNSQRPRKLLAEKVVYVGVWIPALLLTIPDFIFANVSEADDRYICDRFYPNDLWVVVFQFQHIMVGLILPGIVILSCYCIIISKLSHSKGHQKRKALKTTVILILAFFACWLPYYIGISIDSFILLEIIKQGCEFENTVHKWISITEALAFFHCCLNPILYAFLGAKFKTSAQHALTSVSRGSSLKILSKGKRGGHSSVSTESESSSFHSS

For experiment [10], the target named is T1, CXCR4. In words: 125I-CXCL12 binding competition on CEM cells (first experiment). The conditions noted are these: 100 pM 125I-CXCL12. The procedure:
A comparison of anti-CXCR4 antibodies on blocking CXCL12 binding to CEM cells was performed by a standard radio-labeled ligand binding assay. The anti-CXCR4 antibodies were serially diluted 1:3 to yield a range of concentrations from 300 nM to 137 pM. […] An irrelevant antibody of the same isotype was used as a negative control.

In experiment [11] the target is T1, CXCR4. In words: CXCL12-induced calcium flux in CEM cells (Calcium 3 dye). In kind it is cell-based. The note with it: 50 nM CXCL12α. The source says: As a negative control, an irrelevant antibody of the same isotype was used.
(In general: A change in cytosolic calcium serves as a functional read-out for many receptors and channels.)

The target in experiment [12] is T1, CXCR4. In words: CXCL12-induced migration of CEM cells (first experiment). Format: cell-based. The note with it: 5 nM CXCL12α. The procedure:
The anti-CXCR4 antibodies were titrated in a 1:3 serial dilution series resulting in a concentration range from 100 nM to 1 pM and allowed to bind to labeled CEM cells at a density of 10 million cells per ml. As a negative control, an irrelevant antibody of the same isotype was used. Recombinant human CXCL12α (Peprotech) was added at 5 nM at 30 μl per well to the lower chamber of a 96 well Neuroprobe migration plate with 5.7 mm diameter filters per well. Each well contains […]. Labeled CEM cells with and without antibody were loaded onto the filters at a concentration of 0.5 million cells per well in a volume of 50 μl. The migration plate was incubated at 37° C. for 2.5 hours. […] The chemiluminescent signal was recorded on a Fusion instrument.

Experiment [13] deals with human umbilical vein endothelial cells (HuVEC). In words: HuVEC capillary tube formation. Format: cell-based. The note with it: HuVEC on MATRIGEL, 18 hours. The procedure:
In this example, the ability of the anti-CXCR4 human antibodies to inhibit capillary tube formation by human umbilical vein endothelial cells (HuVEC) was examined […]® was diluted 1:1 with RPMI and plated onto the wells of a 96 well plate and allowed to polymerize for 30 minutes at 37° C. HuVEC (from Cambrex, cat. # CC-2519) at 80% confluence were trypsinized and resuspended at 1×10^6 cells per ml in RPMI with 0.5% FBS. Antibodies were well mixed with HuVEC at a final concentration of 3 mg/ml and allowed to incubate at room temperature for 30 minutes. An irrelevant antibody of the same isotype or media alone was used as a negative control. As a positive control of inhibition of tube formation, a mouse anti-human αvβ3 (CD51/CD61) antibody (R&D Systems, cat. # MAB3050) was used. HuVEC with or without antibodies were plated onto the […]®-coated wells and incubated at 37° C. for 18 hours.
The HuVEC incubated with media alone or with the isotype-matched control antibody formed capillary tubes resulting in the appearance of connected cells across the plate with 3-5 points of connection or branch points per cell. […] The cells appeared isolated and with few or no branch points.

The subject of experiment [14] is Ramos tumor cells. In words: Ramos cell proliferation, 3H-thymidine incorporation. In kind it is cell-based, human. The conditions noted are these: 10^−3 to 300 nM; 72 hours. The procedure:
In this example, the ability of the anti-CXCR4 human antibodies to inhibit proliferation of Ramos tumor cells (a human Burkitt's lymphoma cell line) in vitro was examined. […] The cells were incubated with antibody for 72 hours, with ^3H-thymidine being added for the final 24 hours of incubation to allow for monitoring of cell proliferation. Following the incubation, incorporation of ^3H-thymidine by the cells was measured by standard techniques. The results are shown in the graph of FIG. 11A.
For orientation: Dividing cells build labelled thymidine or BrdU into new DNA.

“Also recorded” adds a separate entry of the source.

As for `c1cc(CN2CCCNCCNCCCNCC2)ccc1CN1CCCNCCNCCCNCC1` [AMD3100, Plerixafor], the “inhibition of Ramos cell proliferation” value in experiment [1] was “did not inhibit proliferation”. Further, in experiment [2], the “percent of cells Annexin V/PI double positive” value came to 2.7% and the “percent of cells positive for Annexin V only” value is given as 2.0%.

In the case of `Nc1cccc2c1CN(C1CCC(=O)NC1=O)C2=O` (stereo not shown) [lenalidomide, reference compound], the “tumor growth inhibition” value was “alone = 35%” in experiment [3] (MOLP8), “Neither lenalidomide nor bortezomib alone inhibited tumor growth” in [4] and “REVLIMID ® = 70%” in [7] (MM.1S). Further, the “efficacy in MOLP8 tumors” value in [3] is given as “relatively resistant”. Besides, the “efficacy in inhibiting tumor growth” value in [5] was “ineffective in inhibiting tumor growth”. In addition, in [6] (50 mg/kg), the “efficacy in RPMI-8226 model” value was “marginal efficacy”. The “mean tumor growth inhibition” value in [7] (Day 25, compared to isotype control, MDX-1338 10 mg/kg/dose, lenalidomide 100 mg/kg) is given as 70%. Further, in experiment [8] (lenalidomide 50 mg/kg/dose IP), the “efficacy in OPM-2 model” value is recorded as “minimal efficacy”.

As to `CC[C@@]1(O)C(=O)OCc2c1cc1n(c2=O)Cc2cc3ccccc3nc2-1` [Camptothecin], the “inhibition of Ramos cell proliferation” value in experiment [1] (10 μM) was “completely inhibited cell proliferation”.

Turning to `CC(C)C[C@H](NC(=O)[C@H](Cc1ccccc1)NC(=O)c1cnccn1)B(O)O` [bortezomib, reference compound], the “efficacy in MOLP8 tumors” value in experiment [3] is on record as “relatively resistant”. Also, in experiment [4], the tumor growth inhibition result is given as “Neither lenalidomide nor bortezomib alone inhibited tumor growth”. Moreover, the “efficacy in inhibiting tumor growth” value in experiment [5] is given as “marginal efficacy”. For the same molecule, the “mean tumor growth inhibition” value in experiment [6] (Day 44, compared to isotype control, MDX-1338 10 mg/kg, lenalidomide 50 mg/kg, bortezomib 0.8 mg/kg) was 70%. Also, in experiment [8] (Day 24, compared to vehicle control, MDX-1338 10 mg/kg/dose IP, bortezomib 0.8 mg/kg/dose IV), the “median tumor growth inhibition” value stood at 75%.

B1: E2: human anti-CXCR4 monoclonal antibody; VH SEQ ID NO: 28, VL SEQ ID NO: 32 (antibody, listed as Homo sapiens, V domains shown)
VH: EVQLVQSGGGLVQPGGSLRLSCAAAGFTFSSYSMNWVRQAPGKGLEWVSYISSRSRTIYYADSVKGRFTISRDNAKNSLYLQMNSLRDEDTAVYYCARDYGGQPPYHYYYGMDVWGQGTTVTVSS
VL: EIVLTQSPSSLSASVGDRVTITCRASQGISNWLAWYQQKPEKAPKSLIYAASSLQSGVPSRFSGSGSGTDFTLTISSLQPEDFATYYCQQYNSYPRTFGQGTKVEIK
Consider B1, for which, in [9], the “ability to compete with F9 for binding to CEM cells” value is reported as “able to compete with F9; also recorded: partial inhibition at high concentrations”. Moreover, the “blockade of CXCL12 binding to CXCR4” value in experiment [10] is “did not effectively block CXCL12 binding”. Moreover, the “inhibition of CXCL12α-induced calcium flux” value in experiment [11] was “did not significantly inhibit”. For the same molecule, the “inhibition of CXCL12α-induced migration” value in [12] is recorded as “did not significantly inhibit migration”. Moreover, the “inhibition of capillary tube formation” value in [13] is on record as “did not inhibit capillary tube formation”. In experiment [14], the “inhibition of Ramos cell proliferation (3H-thymidine incorporation)” value is “able to inhibit Ramos cell proliferation”.

B2: D1: human anti-CXCR4 monoclonal antibody; VH SEQ ID NO: 27, VL SEQ ID NO: 31 (antibody, listed as Homo sapiens, V domains shown)
VH: EVQLVQSGGGLVQPGGSLRLSCAAAGFTFSSYSMNWVRQAPGKGLEWVSYISSRSKTIYYADSVKGRFTISRDNARNSLYLQMNSLRDEDTAVYYCARDYGGQPPYYYYYGMDVWGQGTTVTVSS
VL: VIWVTQSPSSLSASVGDRVTITCRTSQGISSWLAWYQQKPEKAPELLIYAASSLQSGVPSRFSGSGSGTDFTLTISSLQPEDFATYYCQQYNSYPRTFGQGTKVEIK
As for B2, in experiment [9], the “ability to compete with F9 for binding to CEM cells” value is given as “able to compete with F9”. For the same molecule, the “inhibition of CXCL12α-induced migration” value in experiment [12] was “did not significantly inhibit migration”.
